From patent publication US6596863B2, “Medical composition containing nitroetheneamine Derivative or salt there of as active constituent” (Ishihara Sangyo Kaisha, Ltd., priority 1998, dated 2003)
Where two headings read alike, the source gives them in different places.

Legend:
[1] = target: T1, human MMP-9 (gelatinase B) (Homo sapiens, UniProt P14780); assay: Inhibition activity against human MMP-9 (gelatinase B), fluorescent peptide substrate; assay type: biochemical
T1 construct: endogenous in cells; host or cells: HT1080 human fibrosarcoma cells (ATCC CCL-121), PMA-stimulated; enzyme purified from the culture supernatant
Method in brief: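 MMP-9 purified from PMA-stimulated (10 ng/ml) HT1080 supernatant, or commercial enzyme (0.0125-0.025 unit/ml or 0.2 μg/ml final), incubated with compound and 10 μM final Mca-Pro-Leu-Gly-Leu-Dpa-Ala-Arg-NH2 fluorescent substrate at 37 °C for 3 h in the dark. Precursor enzyme activated with APMA.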

[2] = compounds of the formula (I), 1st measurement, read-out: MMP-9 inhibition activities IC50, 1st
[3] = compounds of the formula (I), 2nd measurement, read-out: MMP-9 inhibition activities IC50, 2nd
[4] = compounds of the formula (I), average of 1st and 2nd (or single measurement), read-out: MMP-9 inhibition activities IC50, Average
[5] = intermediates, compounds of the formula (IV), 1st measurement, read-out: MMP-9 inhibition activities IC50, 1st
[6] = intermediates, compounds of the formula (IV), 2nd measurement, read-out: MMP-9 inhibition activities IC50, 2nd
[7] = intermediates, compounds of the formula (IV), average of 1st and 2nd (or single measurement), read-out: MMP-9 inhibition activities IC50, Average

T1 sequence (P14780 107-707 limits assumed): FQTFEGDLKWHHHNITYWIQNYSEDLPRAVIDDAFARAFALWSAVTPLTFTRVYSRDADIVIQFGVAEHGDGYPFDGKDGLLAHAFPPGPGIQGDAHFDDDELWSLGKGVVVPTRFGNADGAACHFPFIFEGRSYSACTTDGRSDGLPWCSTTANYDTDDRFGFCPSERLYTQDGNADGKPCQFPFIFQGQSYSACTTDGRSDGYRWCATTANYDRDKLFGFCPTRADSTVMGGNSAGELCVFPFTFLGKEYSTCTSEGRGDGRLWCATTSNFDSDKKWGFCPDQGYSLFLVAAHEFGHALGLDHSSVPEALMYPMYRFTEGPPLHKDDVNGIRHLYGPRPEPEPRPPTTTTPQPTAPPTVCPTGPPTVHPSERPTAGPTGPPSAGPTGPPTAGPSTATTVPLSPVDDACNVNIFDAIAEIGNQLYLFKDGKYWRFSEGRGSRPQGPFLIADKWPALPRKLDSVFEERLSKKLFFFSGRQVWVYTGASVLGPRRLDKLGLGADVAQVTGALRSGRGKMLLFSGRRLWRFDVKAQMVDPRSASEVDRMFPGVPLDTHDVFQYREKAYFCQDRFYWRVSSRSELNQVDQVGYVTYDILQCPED

Row | melting point | IC50 [1, 2] [µM] | IC50 [1, 3] [µM] | IC50 [1, 4] [µM] | IC50 [1, 5] [µM] | IC50 [1, 6] [µM] | IC50 [1, 7] [µM] | SMILES
1 | 190 °C | 13.5 | 28.7 | 21.1 | – | – | – | CNC(=C[N+](=O)[O-])NNc1ccc(C(F)(F)F)cc1 [compound 40]
2 | 209 to 213 °C (dec.) | 29.6 | 16.3 | 23 | – | – | – | NNC(=C[N+](=O)[O-])Nc1ccc2cn[nH]c2c1 [compound 152]
3 | 134 to 137 °C | – | – | – | 29.5 | 29 | 29.3 | COc1ccc(NC(=C[N+](=O)[O-])SC)cn1 [Intermediate 49]
4 | 202 °C (dec.) | 1.4 | 2.8 | 2.1 | – | – | – | CNC(=C[N+](=O)[O-])NNc1ccc2ccccc2n1 [compound 127]
5 | 193 °C (dec.) | 8.8 | 7.8 | 8.3 | – | – | – | CNC(=C[N+](=O)[O-])NNc1cc(C(F)(F)F)cc(OC)n1 [Compound No. 98, N-methyl-1-(2-(4-trifluoromethyl-6-methoxy-2-pyridyl)hydrazino)-2-nitroetheneamine]
6 | 131 °C (dec.) | 13.9 | 12.4 | 13.2 | – | – | – | CNC(=C[N+](=O)[O-])NNc1cc(C(F)(F)F)cc(OCc2cccnc2)n1 [compound 123]
7 | 201 to 202 °C (dec.) | 8.9 | 10.7 | 9.8 | – | – | – | NC(=C[N+](=O)[O-])NNc1cc(C(F)(F)F)cc(Cl)n1 [compound 103]
8 | 191 °C (dec.) | 20.6 | 18.2 | 19.4 | – | – | – | Cc1ccc(NC(=C[N+](=O)[O-])NN)cc1 [compound 48]
9 | 181 °C (dec.) | 16.1 | 18.6 | 17.4 | – | – | – | CNC(=C[N+](=O)[O-])NNc1cc(C(F)(F)F)cc(OCCc2ccccn2)n1 [compound 124]
10 | 172 °C (dec.) | 17.7 | 37.1 | 27.4 | – | – | – | CNC(=C[N+](=O)[O-])NN=Cc1ccc(C)cc1 [compound 137]
11 | 170 °C (dec.) | 12.6 | 16.3 | 14.5 | – | – | – | CNC(=C[N+](=O)[O-])NNc1cc(C(F)(F)F)cc(OCc2ccccn2)n1 [compound 122]
12 | 170 °C (dec.) | 6.3 | – | 6.3 | – | – | – | Cc1cc(C)c(S(C)(=O)=O)c(NNC(=C[N+](=O)[O-])NS(C)(=O)=O)n1 [compound 202]
13 | 161 °C (dec.) | 11.8 | 12.5 | 12.2 | – | – | – | CCCCOc1cc(C(F)(F)F)cc(NNC(=C[N+](=O)[O-])NC)n1 [compound 178]
14 | 153 to 155 °C | – | – | – | 31.6 | 26 | 28.8 | CSC(=C[N+](=O)[O-])Nc1ccc2c(c1)OCO2 [Intermediate 51]
15 | 158 °C (dec.) | 1.2 | 2.4 | 1.8 | – | – | – | CNC(=C[N+](=O)[O-])NNc1nc2ccccc2s1 [compound 132]
16 | 196 °C (dec.) | 41.8 | 41.5 | 41.7 | – | – | – | NNC(=C[N+](=O)[O-])NC1CCCCC1 [compound 86]
17 | 195 °C (dec.) | 15.6 | 18 | 16.8 | – | – | – | COc1ccc(NC(=C[N+](=O)[O-])NN)cc1 [compound 49]
18 | 149 °C (dec.) | 28 | 23.4 | 25.7 | – | – | – | CNC(=C[N+](=O)[O-])NNc1cc(C(F)(F)F)cc(OCCCc2cccnc2)n1 [compound 119]
19 | 186 °C (dec.) | 21.3 | 29.2 | 25.3 | – | – | – | CNC(=C[N+](=O)[O-])NN=Cc1ccc(Cl)cc1 [compound 136]
20 | 162 °C (dec.) | 9 | – | 9 | – | – | – | CNC(=C[N+](=O)[O-])NNc1cc(C(F)(F)F)cc(OCc2ccccc2Cl)n1 [compound 174]
21 | 168 °C (dec.) | 43.8 | 28.8 | 36.3 | – | – | – | CNC(=C[N+](=O)[O-])NNc1ccc(OC)cc1 [compound 17]
22 | 148 °C | 39.9 | 33.5 | 36.7 | – | – | – | COc1ccc(NC(=C[N+](=O)[O-])NN)cc1OC [compound 56]
23 | 174 to 175 °C (dec.) | 4.2 | 7 | 5.6 | – | – | – | CNC(=C[N+](=O)[O-])NNc1cc(C(F)(F)F)ccn1 [compound 94]
24 | 68 to 70 °C | 44.6 | 47.9 | 46.3 | – | – | – | CCOC(=O)Cc1ccc(NC(=C[N+](=O)[O-])NN)cc1 [compound 73]

Row | melting point | IC50 [1, 2] [µM] | IC50 [1, 3] [µM] | IC50 [1, 4] [µM] | IC50 [1, 5] [µM] | IC50 [1, 6] [µM] | IC50 [1, 7] [µM] | SMILES
25 | 82 to 87.5 °C | – | – | – | 21.3 | 37.3 | 29.3 | CSC(=C[N+](=O)[O-])NC1CCCC1 [Intermediate 3]
26 | 118 to 121 °C | – | – | – | 38.9 | 49.6 | 44.3 | COc1cccc(NC(=C[N+](=O)[O-])SC)c1 [Intermediate 20]
27 | 175 °C (dec.) | 7.7 | 8.4 | 8.1 | – | – | – | C=CCOc1cc(C(F)(F)F)cc(NNC(=C[N+](=O)[O-])NC)n1 [compound 130]
28 | 216 °C (dec.) | 5.6 | – | 5.6 | – | – | – | CNC(=C[N+](=O)[O-])NNc1ncnc2c(C)csc12 [compound 170]
29 | 167 °C (dec.) | 11.2 | – | 11.2 | – | – | – | CNC(=C[N+](=O)[O-])NNc1cc(C(F)(F)F)cc(OCCOC(C)C)n1 [compound 196]
30 | 170 °C (dec.) | 11.6 | – | 11.6 | – | – | – | CNC(=C[N+](=O)[O-])NNc1cc(C(F)(F)F)cc(OCCSc2ccccc2)n1 [compound 195]
31 | 138 °C | 7 | 5.6 | 6.4 | – | – | – | CNC(=C[N+](=O)[O-])NNc1cc(OCCOC)cc(C(F)(F)F)c1 [compound 182]
32 | 183.5 °C (dec.) | 22.6 | 29.3 | 26 | – | – | – | NNC(=C[N+](=O)[O-])Nc1ccc(F)cc1 [compound 53]
33 | 156 °C (dec.) | 17.9 | 17.4 | 17.7 | – | – | – | CNC(=C[N+](=O)[O-])NNc1ccccn1 [compound 22]
34 | 165 °C (dec.) | 26.7 | 24 | 25.4 | – | – | – | CNC(=C[N+](=O)[O-])NN=C(C)c1cccs1 [compound 32]
35 | 210 °C (dec.) | 38.3 | 41.8 | 40.1 | – | – | – | NNC(=C[N+](=O)[O-])NS(=O)(=O)c1ccccc1 [compound 156]
36 | 171 to 174 °C | 6.3 | – | 6.3 | – | – | – | O=[N+]([O-])C=C(NNc1cc(C(F)(F)F)cc(Cl)n1)NS(=O)(=O)c1ccc(-c2ccccc2)cc1 [compound 162]
37 | 180 °C | 14 | – | 14 | – | – | – | CNC(=C[N+](=O)[O-])NN=Cc1cccc(C(F)(F)F)c1 [compound 167]
38 | 180 °C (dec.) | 22.3 | 21.9 | 22.6 | – | – | – | CNC(=C[N+](=O)[O-])NN=Cc1ccc2c(c1)OCO2 [compound 140]
39 | 147 °C | 10.3 | 10.9 | 10.6 | – | – | – | CCOCCCOc1cc(C(F)(F)F)cc(NNC(=C[N+](=O)[O-])NC)n1 [compound 197]
40 | 206 °C (dec.) | 0.82 | 1.1 | 0.96 | – | – | – | CNC(=C[N+](=O)[O-])NNc1ccc(Cl)cn1 [compound 172]
41 | 171 °C (dec.) | 47.4 | 42.2 | 44.8 | – | – | – | CNC(=C[N+](=O)[O-])NNc1ccccc1C [compound 14]
42 | 192 °C (dec.) | 20 | 35.7 | 27.9 | – | – | – | NNC(=C[N+](=O)[O-])NC1CCCC1 [compound 91]
43 | 191 to 192 °C (dec.) | 16.1 | 29.2 | 22.7 | – | – | – | CNC(=C[N+](=O)[O-])NN(C)c1cccc(C(F)(F)F)n1 [compound 39]
44 | 185 to 186 °C (dec.) | 11.7 | 8.4 | 10.1 | – | – | – | CCOc1cc(C(F)(F)F)cc(NNC(=C[N+](=O)[O-])NC)n1 [compound 106]
45 | 190 °C (dec.) | 34 | 33.8 | 33.9 | – | – | – | NNC(=C[N+](=O)[O-])Nc1ccc(O)cc1 [compound 76]
46 | 197 °C (dec.) | 12.3 | – | 12.3 | – | – | – | CNC(=C[N+](=O)[O-])NNc1c(Cl)cncc1Cl [compound 186]
47 | 250 °C | 41.4 | 40.7 | 41.4 | – | – | – | CNC(=C[N+](=O)[O-])NNc1cccc(C(=O)O)c1 [compound 42]

Row | SMILES | melting point | IC50 [1, 2] [µM] | IC50 [1, 3] [µM] | IC50 [1, 4] [µM] | IC50 [1, 5] [µM] | IC50 [1, 6] [µM] | IC50 [1, 7] [µM]
48 | CNC(=C[N+](=O)[O-])NNc1ccccc1[N+](=O)[O-] [compound 11] | 194 °C (dec.) | 31.9 | 33.7 | 32.8 | – | – | –
